Activity calls are given as the source filed them.
How the values were obtained:
Cytochrome P450 2D6 = Cytochrome P450 2D6 (Homo sapiens, UniProt P10635);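 further: CYP2D6 member of a cytochrome P450 panel assay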
[1] = target: DNA dC->dU-editing enzyme APOBEC-3A (Homo sapiens, UniProt P31941); experiment: APOBEC3A DNA deaminase inhibitors, dose response, biochemical (AID 504722); format: functional
[2] = target: DNA dC->dU-editing enzyme APOBEC-3G (Homo sapiens, UniProt Q9HC16); experiment: Dose Response confirmation of small molecule APOBEC3G DNA Deaminase Inhibitors via a fluorescence-based single-stranded DNA deaminase assay. [Related pubchem assays (depositor defined):AID493012, AID493028]; format: functional
Tumor necrosis factor = Tumor necrosis factor (Homo sapiens, UniProt P01375); experiment: TNFa-triggered NF-kB activation inhibitors, SAR follow-up, cell-based, revised (AID 2337); format: functional
[3] = target: T1, Nucleotide-binding oligomerization domain-containing protein 1 (Homo sapiens, UniProt Q9Y239); experiment: NOD1 signaling inhibitors, SAR follow-up, revised (AID 2333); format: functional
T1 sequence (Q9Y239 whole entry): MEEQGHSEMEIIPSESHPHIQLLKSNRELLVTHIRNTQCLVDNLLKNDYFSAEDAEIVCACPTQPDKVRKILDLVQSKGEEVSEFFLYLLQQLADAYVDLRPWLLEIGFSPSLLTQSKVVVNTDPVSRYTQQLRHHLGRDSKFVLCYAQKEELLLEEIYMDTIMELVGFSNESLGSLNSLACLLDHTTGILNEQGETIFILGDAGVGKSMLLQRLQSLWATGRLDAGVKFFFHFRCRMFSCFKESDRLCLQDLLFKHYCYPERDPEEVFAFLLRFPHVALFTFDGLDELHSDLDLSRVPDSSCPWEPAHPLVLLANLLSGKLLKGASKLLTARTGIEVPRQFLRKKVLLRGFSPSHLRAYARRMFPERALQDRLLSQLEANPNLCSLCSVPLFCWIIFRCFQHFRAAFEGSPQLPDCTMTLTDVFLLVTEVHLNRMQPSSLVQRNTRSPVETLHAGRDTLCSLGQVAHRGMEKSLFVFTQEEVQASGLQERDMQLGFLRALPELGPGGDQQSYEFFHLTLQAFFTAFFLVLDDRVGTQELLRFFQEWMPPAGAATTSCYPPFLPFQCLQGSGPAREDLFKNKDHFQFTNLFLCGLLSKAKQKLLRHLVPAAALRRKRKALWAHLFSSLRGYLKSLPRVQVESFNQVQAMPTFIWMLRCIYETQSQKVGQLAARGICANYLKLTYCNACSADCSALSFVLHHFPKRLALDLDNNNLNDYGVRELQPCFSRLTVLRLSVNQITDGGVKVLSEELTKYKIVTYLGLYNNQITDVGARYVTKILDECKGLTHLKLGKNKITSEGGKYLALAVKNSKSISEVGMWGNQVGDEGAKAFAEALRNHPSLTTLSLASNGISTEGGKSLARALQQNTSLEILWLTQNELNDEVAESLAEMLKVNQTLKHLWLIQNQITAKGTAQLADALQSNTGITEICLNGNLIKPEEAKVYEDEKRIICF

[4] = target: Nucleotide-binding oligomerization domain-containing protein 2 (Homo sapiens, UniProt Q9HC29); experiment: PubChem AID 2334; format: functional
Cytochrome P450 2C9 [5] = target: T2, Cytochrome P450 2C9 (Homo sapiens, UniProt P11712)
HEK293 = experiment: cells; conditions: Homo sapiens;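 further: cells exposed to compound for 14 hours overnight before viability readout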
Cytochrome P450 2C19 = Cytochrome P450 2C19 (Homo sapiens, UniProt P33261); experiment: Cytochrome panel assay with activity outcomes. Panel member name: p450-cyp2c19 Compounds with AC50 equal or less than 10 uM are considered active; format: functional; conditions: read-out: AC50
Cytochrome P450 1A2 = target: T3, Cytochrome P450 1A2 (Homo sapiens, UniProt P05177);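 further: PubChem cytochrome P450 panel assay, CYP1A2 panel member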
T3 sequence (P05177 whole entry): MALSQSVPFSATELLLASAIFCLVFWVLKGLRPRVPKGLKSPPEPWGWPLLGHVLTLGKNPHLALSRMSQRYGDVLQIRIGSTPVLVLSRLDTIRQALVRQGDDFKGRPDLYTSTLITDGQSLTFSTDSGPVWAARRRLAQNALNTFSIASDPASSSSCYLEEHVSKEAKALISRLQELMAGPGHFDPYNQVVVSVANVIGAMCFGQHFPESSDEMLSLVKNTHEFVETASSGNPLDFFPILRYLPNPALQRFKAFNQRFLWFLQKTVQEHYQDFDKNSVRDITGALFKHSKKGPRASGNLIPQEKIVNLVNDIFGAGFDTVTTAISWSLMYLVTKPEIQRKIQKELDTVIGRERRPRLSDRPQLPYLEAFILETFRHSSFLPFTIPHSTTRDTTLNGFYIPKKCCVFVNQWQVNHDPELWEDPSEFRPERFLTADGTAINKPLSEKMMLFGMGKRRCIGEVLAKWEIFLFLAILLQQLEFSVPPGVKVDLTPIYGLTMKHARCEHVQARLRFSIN

Cytochrome P450 2C9 [6] = target: T2, Cytochrome P450 2C9; remark: listed apart in the source
[7] = target: T4, DNA repair and recombination protein RAD54-like (Homo sapiens, UniProt Q92698); experiment: inhibitors of human RAD54 branch migration, confirmation, biochemical, fluorescence, cherry-picked samples, dose series (AID 651657); format: functional
T4 sequence (Q92698 whole entry): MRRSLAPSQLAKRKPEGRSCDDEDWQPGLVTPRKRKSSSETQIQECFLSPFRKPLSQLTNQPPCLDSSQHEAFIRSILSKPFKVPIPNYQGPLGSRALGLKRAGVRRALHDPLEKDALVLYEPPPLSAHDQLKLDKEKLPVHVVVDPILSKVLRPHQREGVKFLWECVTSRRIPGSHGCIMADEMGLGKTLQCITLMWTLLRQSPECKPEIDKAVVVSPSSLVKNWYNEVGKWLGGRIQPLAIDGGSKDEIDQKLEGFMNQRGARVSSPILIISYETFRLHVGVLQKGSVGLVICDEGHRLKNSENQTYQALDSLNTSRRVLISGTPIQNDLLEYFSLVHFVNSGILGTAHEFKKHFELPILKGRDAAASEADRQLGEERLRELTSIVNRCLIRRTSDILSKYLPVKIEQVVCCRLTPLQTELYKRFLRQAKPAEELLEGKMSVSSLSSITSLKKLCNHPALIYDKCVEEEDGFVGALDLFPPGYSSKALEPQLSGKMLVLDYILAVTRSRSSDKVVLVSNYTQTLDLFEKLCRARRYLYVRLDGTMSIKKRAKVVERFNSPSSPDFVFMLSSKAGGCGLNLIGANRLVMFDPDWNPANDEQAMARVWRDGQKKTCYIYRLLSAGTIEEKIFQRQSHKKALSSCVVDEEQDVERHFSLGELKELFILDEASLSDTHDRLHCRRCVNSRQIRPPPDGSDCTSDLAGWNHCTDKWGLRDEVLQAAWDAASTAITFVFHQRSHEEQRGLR

Cytochrome P450 3A4 = Cytochrome P450 3A4 (Homo sapiens, UniProt P08684);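 further: CYP3A4 tested as one member of a cytochrome P450 panel screen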
SUMO-activating enzyme = SUMO-activating enzyme (Homo sapiens, UniProt Q9UBT2); experiment: SUMOylation inhibitor hit validation, confirmation, SUMOylation inhibitor project, biochemical, AlphaScreen (AID 2018); format: functional
[8] = test system: Streptococcus sp. 'group A'; experiment: growth inhibition of control SK(-) GAS strain, dose response, counter-screen for streptokinase expression inhibitor project, luminescence, kanamycin, BacTiterGlo, confirmation (AID 1900); format: functional, organism-based
Large T antigen = Large T antigen (Simian virus 40, UniProt P03070); format: functional, Betapolyomavirus macacae;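 further: Confirmatory-stage PubChem screen for compounds that inhibit SV40 T antigen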
Streptococcus = experiment: Group A Streptococcus viability loss, dose response, counter-screen for streptokinase expression inhibitor project, luminescence, BacTiterGlo (AID 1915); format: functional, organism-based;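 further: potency for reduction of bacterial viability or growth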
Hexokinase HKDC1 = target: T5, Hexokinase HKDC1 (Homo sapiens, UniProt Q2TB90); experiment: HKDC1 hexokinase inhibitors, dose response, biochemical, W721R variant (AID 504729); format: functional
T5 sequence (Q2TB90 whole entry): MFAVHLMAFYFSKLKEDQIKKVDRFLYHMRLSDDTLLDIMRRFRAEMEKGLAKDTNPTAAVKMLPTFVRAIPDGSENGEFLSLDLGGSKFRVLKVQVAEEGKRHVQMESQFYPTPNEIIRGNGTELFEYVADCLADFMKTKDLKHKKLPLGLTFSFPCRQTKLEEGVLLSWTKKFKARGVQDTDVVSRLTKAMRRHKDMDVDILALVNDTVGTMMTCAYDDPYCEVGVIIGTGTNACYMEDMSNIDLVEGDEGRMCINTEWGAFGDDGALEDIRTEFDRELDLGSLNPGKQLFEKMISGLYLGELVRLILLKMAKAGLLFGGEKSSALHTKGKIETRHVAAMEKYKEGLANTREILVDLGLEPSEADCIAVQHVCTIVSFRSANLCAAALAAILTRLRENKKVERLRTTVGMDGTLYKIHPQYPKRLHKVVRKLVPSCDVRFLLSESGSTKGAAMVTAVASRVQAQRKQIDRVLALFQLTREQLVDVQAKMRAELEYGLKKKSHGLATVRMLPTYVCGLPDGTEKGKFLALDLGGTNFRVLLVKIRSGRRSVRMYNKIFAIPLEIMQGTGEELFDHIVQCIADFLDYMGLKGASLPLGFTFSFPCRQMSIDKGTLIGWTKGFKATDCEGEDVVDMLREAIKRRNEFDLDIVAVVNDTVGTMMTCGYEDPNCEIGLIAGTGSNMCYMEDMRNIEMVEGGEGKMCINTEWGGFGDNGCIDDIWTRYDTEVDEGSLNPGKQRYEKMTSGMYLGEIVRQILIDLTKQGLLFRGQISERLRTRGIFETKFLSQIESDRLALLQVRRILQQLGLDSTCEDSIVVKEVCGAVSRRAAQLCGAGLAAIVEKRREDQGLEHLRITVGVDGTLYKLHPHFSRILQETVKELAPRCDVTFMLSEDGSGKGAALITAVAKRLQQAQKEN

fMet-Leu-Phe receptor = target: T6, fMet-Leu-Phe receptor (Homo sapiens, UniProt P21462); experiment: FPR ligands, dose response (AID 519); format: functional
T6 sequence (P21462 whole entry): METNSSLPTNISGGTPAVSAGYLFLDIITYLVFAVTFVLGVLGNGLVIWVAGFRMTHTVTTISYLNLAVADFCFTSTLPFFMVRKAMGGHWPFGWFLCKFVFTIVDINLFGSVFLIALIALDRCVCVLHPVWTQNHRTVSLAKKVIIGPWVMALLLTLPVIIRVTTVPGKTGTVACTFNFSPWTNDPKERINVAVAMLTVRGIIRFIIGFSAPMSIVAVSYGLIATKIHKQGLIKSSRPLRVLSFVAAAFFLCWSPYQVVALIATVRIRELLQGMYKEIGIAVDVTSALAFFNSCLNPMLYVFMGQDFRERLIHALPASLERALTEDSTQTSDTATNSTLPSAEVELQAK

[9] = target: T7, E3 ubiquitin-protein ligase XIAP (Homo sapiens, UniProt P98170); experiment: Counter Screen using XIAP-Bir3 for Chemical Antagonists of Bir1/2 domains of IAP-family anti-apoptotic proteins. [Related pubchem assays (depositor defined):AID1018, AID1449, AID1514, AID1638, AID1749, AID1750, AID488957, AID488963]
[10] = target: T7, E3 ubiquitin-protein ligase XIAP; experiment: XIAP antagonists, biochemical, IAP family, fluorescence polarization (AID 1018); format: functional
[11] = THP-1 cell cytotoxicity, dose response, cytotoxicity control for non-replicating M. tuberculosis project (AID 489025); format: functional
[12] = Vero E6 cell cytotoxicity, dose response, cytotoxicity control for non-replicating M. tuberculosis project, secondary assay (AID 492998); format: functional, VeroE6; conditions: Vero C1008
cells = format: functional

Sequence of DNA dC->dU-editing enzyme APOBEC-3G (Q9HC16 whole entry): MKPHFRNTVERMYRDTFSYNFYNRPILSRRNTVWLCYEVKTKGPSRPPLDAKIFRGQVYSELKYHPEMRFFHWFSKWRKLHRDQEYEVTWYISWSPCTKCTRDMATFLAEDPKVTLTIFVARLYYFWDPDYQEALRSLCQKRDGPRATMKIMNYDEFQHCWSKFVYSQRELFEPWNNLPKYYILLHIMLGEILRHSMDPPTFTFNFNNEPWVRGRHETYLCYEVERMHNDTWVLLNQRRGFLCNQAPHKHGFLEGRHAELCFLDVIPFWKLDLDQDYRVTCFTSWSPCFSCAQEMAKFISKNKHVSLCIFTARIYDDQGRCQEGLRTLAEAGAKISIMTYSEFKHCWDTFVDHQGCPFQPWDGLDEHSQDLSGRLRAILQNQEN
Sequence of Nucleotide-binding oligomerization domain-containing protein 2 (Q9HC29 whole entry, the tested form may be a part): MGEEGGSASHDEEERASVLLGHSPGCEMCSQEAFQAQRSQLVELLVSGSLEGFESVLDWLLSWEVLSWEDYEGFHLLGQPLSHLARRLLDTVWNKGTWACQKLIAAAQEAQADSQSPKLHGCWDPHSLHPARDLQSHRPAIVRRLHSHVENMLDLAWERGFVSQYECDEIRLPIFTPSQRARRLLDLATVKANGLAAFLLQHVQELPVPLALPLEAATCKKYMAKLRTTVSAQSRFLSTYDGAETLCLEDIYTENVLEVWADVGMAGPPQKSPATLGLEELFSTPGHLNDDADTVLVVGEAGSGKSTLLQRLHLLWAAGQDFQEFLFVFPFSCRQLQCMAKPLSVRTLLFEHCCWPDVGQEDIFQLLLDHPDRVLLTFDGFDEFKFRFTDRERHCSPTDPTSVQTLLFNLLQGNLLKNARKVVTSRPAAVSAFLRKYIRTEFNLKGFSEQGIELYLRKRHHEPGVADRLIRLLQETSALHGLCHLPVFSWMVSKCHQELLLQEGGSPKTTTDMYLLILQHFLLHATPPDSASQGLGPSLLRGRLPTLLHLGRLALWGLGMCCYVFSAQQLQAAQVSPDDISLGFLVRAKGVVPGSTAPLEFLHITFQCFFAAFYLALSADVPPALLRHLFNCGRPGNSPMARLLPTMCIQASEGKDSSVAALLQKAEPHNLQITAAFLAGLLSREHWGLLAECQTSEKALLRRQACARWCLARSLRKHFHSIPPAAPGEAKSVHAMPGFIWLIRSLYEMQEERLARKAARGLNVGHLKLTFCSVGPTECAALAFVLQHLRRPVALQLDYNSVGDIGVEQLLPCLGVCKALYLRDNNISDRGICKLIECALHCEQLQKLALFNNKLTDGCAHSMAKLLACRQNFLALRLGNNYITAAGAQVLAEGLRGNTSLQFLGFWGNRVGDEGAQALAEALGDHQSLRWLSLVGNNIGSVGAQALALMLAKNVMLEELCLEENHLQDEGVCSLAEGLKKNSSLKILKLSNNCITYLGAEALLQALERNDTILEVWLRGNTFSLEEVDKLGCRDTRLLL
Sequence of Tumor necrosis factor (P01375 whole entry, the tested form may be a part): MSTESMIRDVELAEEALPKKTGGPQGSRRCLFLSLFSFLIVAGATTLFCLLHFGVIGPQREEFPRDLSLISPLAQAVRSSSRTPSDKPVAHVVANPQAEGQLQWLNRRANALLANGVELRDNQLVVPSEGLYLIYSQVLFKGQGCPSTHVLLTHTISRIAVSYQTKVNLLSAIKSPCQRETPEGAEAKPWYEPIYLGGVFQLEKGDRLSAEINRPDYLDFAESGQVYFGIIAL
T7 sequence (P98170 whole entry): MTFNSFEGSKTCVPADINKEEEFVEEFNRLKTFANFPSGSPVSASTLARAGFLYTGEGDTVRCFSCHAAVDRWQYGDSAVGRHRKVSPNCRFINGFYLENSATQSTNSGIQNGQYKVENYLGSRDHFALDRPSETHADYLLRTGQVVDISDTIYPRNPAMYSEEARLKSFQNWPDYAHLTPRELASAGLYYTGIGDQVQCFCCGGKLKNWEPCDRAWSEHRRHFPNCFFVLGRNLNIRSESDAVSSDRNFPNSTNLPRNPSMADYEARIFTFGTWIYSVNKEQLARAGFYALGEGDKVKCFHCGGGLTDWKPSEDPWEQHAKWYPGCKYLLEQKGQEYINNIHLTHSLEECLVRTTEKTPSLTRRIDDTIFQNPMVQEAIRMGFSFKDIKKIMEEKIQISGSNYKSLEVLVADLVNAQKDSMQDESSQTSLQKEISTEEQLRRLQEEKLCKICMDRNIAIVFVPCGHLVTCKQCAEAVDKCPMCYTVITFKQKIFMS
T2 sequence (P11712 whole entry): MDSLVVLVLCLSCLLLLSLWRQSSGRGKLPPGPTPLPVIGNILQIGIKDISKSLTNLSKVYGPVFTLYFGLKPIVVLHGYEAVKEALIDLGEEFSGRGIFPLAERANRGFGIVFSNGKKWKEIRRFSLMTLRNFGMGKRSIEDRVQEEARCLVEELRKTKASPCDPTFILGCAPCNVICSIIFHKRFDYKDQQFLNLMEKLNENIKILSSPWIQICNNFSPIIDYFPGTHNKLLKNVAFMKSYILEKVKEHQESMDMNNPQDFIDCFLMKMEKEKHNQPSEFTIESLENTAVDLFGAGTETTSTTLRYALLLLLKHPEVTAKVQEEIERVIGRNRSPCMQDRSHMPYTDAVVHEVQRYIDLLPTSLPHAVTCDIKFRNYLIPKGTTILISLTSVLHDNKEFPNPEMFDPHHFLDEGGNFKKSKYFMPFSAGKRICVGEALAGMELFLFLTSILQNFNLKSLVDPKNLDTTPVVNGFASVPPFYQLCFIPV
Sequence of Cytochrome P450 2D6 (P10635 whole entry): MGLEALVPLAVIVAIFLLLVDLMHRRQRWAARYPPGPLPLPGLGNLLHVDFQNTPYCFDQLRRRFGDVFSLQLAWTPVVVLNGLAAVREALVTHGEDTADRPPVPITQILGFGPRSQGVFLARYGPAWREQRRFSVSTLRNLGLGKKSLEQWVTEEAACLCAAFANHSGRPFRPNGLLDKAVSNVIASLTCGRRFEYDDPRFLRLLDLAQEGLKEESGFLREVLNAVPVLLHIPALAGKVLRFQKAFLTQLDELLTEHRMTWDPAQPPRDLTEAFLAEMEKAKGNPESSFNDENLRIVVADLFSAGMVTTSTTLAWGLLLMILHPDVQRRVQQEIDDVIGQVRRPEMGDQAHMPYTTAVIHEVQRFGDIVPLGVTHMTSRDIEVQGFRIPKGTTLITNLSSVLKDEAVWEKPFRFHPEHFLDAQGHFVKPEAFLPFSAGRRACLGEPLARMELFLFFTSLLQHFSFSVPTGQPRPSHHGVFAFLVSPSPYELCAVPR
Sequence of DNA dC->dU-editing enzyme APOBEC-3A (P31941 whole entry): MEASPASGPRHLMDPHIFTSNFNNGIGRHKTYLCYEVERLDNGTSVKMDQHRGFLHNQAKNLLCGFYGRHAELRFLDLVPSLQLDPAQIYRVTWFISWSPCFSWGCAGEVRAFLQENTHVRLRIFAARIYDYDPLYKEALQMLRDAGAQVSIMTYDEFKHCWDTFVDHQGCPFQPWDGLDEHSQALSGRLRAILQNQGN
Sequence of Cytochrome P450 2C19 (P33261 whole entry): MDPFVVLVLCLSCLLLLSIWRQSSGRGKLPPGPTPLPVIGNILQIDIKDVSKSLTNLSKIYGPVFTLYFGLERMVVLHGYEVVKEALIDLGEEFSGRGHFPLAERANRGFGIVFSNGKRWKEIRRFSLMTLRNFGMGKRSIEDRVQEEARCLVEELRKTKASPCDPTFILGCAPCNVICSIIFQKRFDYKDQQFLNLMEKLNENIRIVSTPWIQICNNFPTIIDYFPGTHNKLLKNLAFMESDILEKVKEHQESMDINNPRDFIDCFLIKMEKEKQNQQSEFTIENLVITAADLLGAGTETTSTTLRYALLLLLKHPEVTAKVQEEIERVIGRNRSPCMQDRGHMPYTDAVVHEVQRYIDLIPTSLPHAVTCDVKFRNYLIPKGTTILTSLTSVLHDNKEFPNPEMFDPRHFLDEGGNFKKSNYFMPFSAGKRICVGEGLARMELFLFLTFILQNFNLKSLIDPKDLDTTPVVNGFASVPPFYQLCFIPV
Sequence of Large T antigen (P03070 whole entry): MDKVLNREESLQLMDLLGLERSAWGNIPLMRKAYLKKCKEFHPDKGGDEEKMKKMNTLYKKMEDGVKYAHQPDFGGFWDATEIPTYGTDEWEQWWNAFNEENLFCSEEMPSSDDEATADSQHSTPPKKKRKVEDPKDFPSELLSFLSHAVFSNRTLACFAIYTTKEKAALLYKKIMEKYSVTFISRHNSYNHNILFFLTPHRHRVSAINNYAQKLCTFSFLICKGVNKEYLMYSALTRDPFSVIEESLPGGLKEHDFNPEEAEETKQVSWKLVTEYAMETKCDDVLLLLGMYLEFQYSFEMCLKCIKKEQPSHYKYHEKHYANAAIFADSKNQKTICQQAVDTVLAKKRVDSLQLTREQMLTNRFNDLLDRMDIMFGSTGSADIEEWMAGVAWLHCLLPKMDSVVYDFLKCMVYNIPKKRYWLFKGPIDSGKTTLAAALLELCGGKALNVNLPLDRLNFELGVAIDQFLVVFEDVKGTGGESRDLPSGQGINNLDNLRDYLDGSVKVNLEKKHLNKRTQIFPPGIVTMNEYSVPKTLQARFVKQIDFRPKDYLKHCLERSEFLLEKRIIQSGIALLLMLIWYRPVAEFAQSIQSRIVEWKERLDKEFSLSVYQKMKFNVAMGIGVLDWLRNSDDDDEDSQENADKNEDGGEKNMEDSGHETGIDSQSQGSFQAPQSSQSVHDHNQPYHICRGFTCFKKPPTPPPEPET

CC(C)(/N=N\C(C)(C)C(=N)N)C(=N)N.Cl
AC50 (Cytochrome P450 2D6): inconclusive

CC(=O)N1CC[n+]2c(-c3ccc([N+](=O)[O-])cc3)csc21
IC50 [1]: > 100 µM (inactive)
IC50 [2]: 13.3 µM (active)

CC(=O)Nc1nc2ccccc2n1Cc1ccccc1
IC50 (Tumor necrosis factor): > 20 µM (inactive)
IC50 [3]: > 20 µM (inactive)
IC50 [4]: > 20 µM (inactive)
AC50 (Cytochrome P450 2C9 [5]): 35.5 µM (inconclusive)
IC50 (HEK293): > 20 µM (inactive)

Cn1cccc1/C=N/n1c(S)nnc1-c1ccccc1
IC50 [1]: > 100 µM (inactive)
IC50 [2]: 1.78 µM (active)

Cc1nonc1C(=O)NN=Cc1ccc([N+](=O)[O-])o1
IC50 (Tumor necrosis factor): > 20 µM (inactive)
IC50 [3]: 16.4 µM (active)
IC50 [4]: 19.7 µM (active)
IC50 (HEK293): > 20 µM (inactive)

Cc1scc(C(=O)NN=C(S)NCC2CCCO2)c1C (stereo not drawn)
AC50 (Cytochrome P450 2C19): 6.31 µM (inconclusive)
AC50 (Cytochrome P450 1A2): 11.2 µM (inconclusive)
AC50 (Cytochrome P450 2D6): inconclusive
AC50 (Cytochrome P450 2C9 [6]): inconclusive

CCN1CCc2c(sc(NC(=O)c3ccc(S(=O)(=O)N4CCOCC4)cc3)c2C(=O)OC)C1.Cl
AC50 (Cytochrome P450 2C19): 31.6 µM (inconclusive)
AC50 [7]: 12.8 µM (active)
AC50 (Cytochrome P450 2C9 [5]): 5.01 µM (inconclusive)
AC50 (Cytochrome P450 2D6): inconclusive
AC50 (Cytochrome P450 3A4): inconclusive

O=C1N/C(=N\c2ccc3ccccc3c2)S/C1=C/c1ccco1
IC50 (SUMO-activating enzyme): 14 µM (active)

CC(/C=C/c1ccccc1)=NNC(=O)c1cccc(Br)c1
IC50 (Tumor necrosis factor): > 20 µM (inactive)
IC50 [3]: > 20 µM (inactive)
IC50 [4]: > 20 µM (inactive)
IC50 (HEK293): > 20 µM (inactive)

CCCCNC(=O)c1sc(=S)n2c1[nH]c(=O)c1ccccc12
EC50 [8]: 11.2 µM (active)
IC50 (Large T antigen): 79.6 µM (active)
EC50 (Streptococcus): 13.1 µM (active)
IC50 (Hexokinase HKDC1): 18.8 µM (active)
Ki (fMet-Leu-Phe receptor): 19.6 µM (inactive)

COCCn1nnnc1C(C(C)C)N(Cc1ccccc1)Cc1cc2cc(OC)ccc2nc1O (stereo not drawn)
IC50 [9]: > 100 µM (inactive)
IC50 [10]: > 100 µM (not active)

COc1ccc(NC(=O)CCCN2C(=O)/C(=C\c3ccco3)SC2=S)cc1
IC50 [9]: > 25 µM (inactive)
IC50 [10]: > 100 µM (not active)
CC50 [11]: > 40 µM (active)
CC50 [12]: 16 µM (active)
IC50 (cells): 23.4 µM (active)

COc1ccccc1/C=C/C=N/n1c(S)nnc1-c1ccccn1
IC50 [1]: > 100 µM (inactive)
IC50 [2]: 2.67 µM (active)

CCCc1nc2oc3c(NCCOCCO)ncnc3c2c2c1COC(C)(C)C2
IC50 (Hexokinase HKDC1): 12.4 µM (active)

Source: ChEMBL document CHEMBL1201862, “PubChem BioAssay data set” (2004)
